Experimental data reported in PubChem BioAssay AID179 (DTP/NCI, 2004).
pEC50, pIC50: −log10 of the molar value. Activity calls are given as the source filed them.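 How the source made its calls: active means compounds giving half or more protection of infected cells from virus-caused growth loss, again on retest; inactive means the rest.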

System: CEM cells HIV-1 protection, formazan growth assay
Experiment: NCI AIDS Antiviral Assay
Conditions: for pIC50: measured here: growth of uninfected CEM cells
Procedure, shortened: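 Human CEM cells, uninfected and HIV-1-infected, received five drug concentrations, and growth was read by soluble formazan assay. Compounds giving at least 50% protection were retested; reproducible 100% protection defined confirmed active.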

## CC(C)(C)C(=O)/C=C/c1ccc(Br)cc1
  outcome: inactive

## CC(=O)O[C@]1(C)OC(=O)[C@@H](CC(C)C)N1[N+](=O)[O-]
  outcome: inactive

## O=C1CCCCCCCCCCC1CCCCCBr (stereo not given)
  pEC50: < 3.70
  pIC50: 4.24

## CC1=CCP(C(F)(F)F)P(C(F)(F)F)C1 (stereo not given)
  pEC50: < 3.60
  pIC50: < 3.60

## Cc1cc2c(=O)c3ccc(Cl)cc3[nH]c2c(C(=O)O)c1C
  outcome: inactive

## NC(N)=N/N=C/c1c[nH]c2ccccc12
  pEC50: < 3.02
  pIC50: 4.26

## CCOC#CCCOCc1ccccc1
  pEC50: < 4.18
  pIC50: < 4.18

## NCCn1ccc(NC(c2ccccc2)(c2ccccc2)c2ccccc2)nc1=O
  pEC50: < 4.04
  pIC50: 4.34

## CC1(C)OC2C(CO)OC(/N=C(\NC#N)Oc3ccccc3)C2O1 (stereo not given)
  pEC50: < 3.70
  pIC50: < 3.70

## Cn1c(=O)c2ccccc2c2nc3ccccc3nc21
  outcome: inactive

## O=C1c2ccccc2C(=O)N1/N=C1/SC(=Nc2ccccc2)C(=Nc2ccccc2)N1c1ccccc1
  outcome: inactive

## NS(=O)(=O)c1cc2c(cc1C(F)(F)F)NCNS2(=O)=O
  pEC50: < 3.12
  pIC50: < 3.12

## Cc1ccc(N=Nc2c(-c3ccccc3)nn(C(=O)CC(=O)Nc3ccc(Cl)cc3)c2-c2ccccc2)cc1
  pEC50: < 5.01
  pIC50: < 5.01

## Cc1cc(Br)ccc1N=NC1C(=O)ON=C1c1ccccc1 (stereo not given)
  outcome: inactive

## O=C(O)C(CS)N=c1c2ccccc2n(O)c2ccccc12 (stereo not given)
  outcome: inactive

## Cc1nc2ccccc2c(=O)n1NC(=O)c1ccccn1
  pEC50: < 3.70
  pIC50: < 3.70

## Oc1ccc2ccccc2c1C=Nc1ccc(SSc2ccc(N=Cc3c(O)ccc4ccccc34)cc2)cc1
  pEC50: < 3.70
  pIC50: 4.52

## COc1ccc(N2C(=O)/C(=C\c3cc(OC)c(OC)c(OC)c3)SC2c2ccccc2)cc1 (stereo not given)
  pEC50: < 3.70
  pIC50: 4.29

## O=C1OC(OC2OC(=O)c3ccccc32)c2ccccc21 (stereo not given)
  pEC50: < 3.70
  pIC50: < 3.70

## N#Cc1c[nH]n2ccnc12
  pEC50: < 3.70
  pIC50: < 3.70

## CCCCCCCCCCc1c2nc(c(CCCCCCCCCC)c3ccc([nH]3)c(CCCCCCCCCC)c3ccc([nH]3)c(CCCCCCCCCC)c3nc1C=C3)C=C2
  pEC50: < 4.00
  pIC50: < 4.00

## N#Cc1ccc(Nc2nc3nc[nH]c3c(=O)[nH]2)cc1
  pEC50: < 3.70
  pIC50: < 3.70

## Cc1cc(-c2ccc(N=Nc3cc(S(=O)(=O)O)c4cccnc4c3O)c(C)c2)ccc1N=Nc1cc(S(=O)(=O)O)c2cccnc2c1O
  pEC50: 4.22
  pIC50: 4.07

## Cn1c(C2CCCc3c2c2ccccc2n3C)cc2ccccc21 (stereo not given)
  pEC50: < 4.78
  pIC50: < 4.78

## Nc1cc(Nc2ccc(Cl)[nH]c2=S)nc(N)n1
  pEC50: < 3.73
  pIC50: 5.24

## O=S(=O)(O)c1cc(O)c2c(N=Nc3ccc(N=Nc4c(S(=O)(=O)O)cc5cc(Nc6ccccc6)ccc5c4O)c4ccccc34)cc(S(=O)(=O)O)cc2c1
  outcome: inactive

## [N-]=[N+]=Nc1c(C=O)c(=O)n2c3c(cccc13)CCC2
  pEC50: < 3.70
  pIC50: 5.37

## O=C1C2C(C(=O)N1c1ccccc1)C1(c3ccccc3)CCC2(C(=O)c2ccccc2)O1 (stereo not given)
  pEC50: < 3.70
  pIC50: 4.30

## C=CC(=O)N1C/C(=C\c2ccc(OC)cc2)C(=O)/C(=C/c2ccc(OC)cc2)C1
  pEC50: 6.70
  pIC50: 5.62

## CC(C)C(=O)/C=C/c1ccc(Cl)c(Cl)c1
  pEC50: < 3.70
  pIC50: 4.96

## CCCCN(CCCC)C(=S)SSC(=S)N(CCCC)CCCC
  pEC50: < 3.70
  pIC50: 5.28

## OCC1OC(n2ccc3cnccc32)CC1O (stereo not given)
  outcome: inactive

## O=C(CC1(O)C(=O)Nc2ccc([N+](=O)[O-])cc21)c1ccc2ccccc2c1 (stereo not given)
  pEC50: < 4.00
  pIC50: < 4.00

## Cc1c(NC(=O)CSC(=S)N2CCN(Cc3ccccc3)CC2)c(=O)n(-c2ccccc2)n1C
  outcome: inactive

## NNC(=O)C1C2c3ccccc3C(c3ccccc32)C1C(=O)NN (stereo not given)
  pEC50: < 3.70
  pIC50: < 3.70

## COc1cc2c(c(OC)c1OC)C(=O)[C@@H](O)[C@H]2NC(=O)CCCCl
  pEC50: < 3.70
  pIC50: < 3.70

## CON(C)C(=O)C(Cc1ccccc1)NC(=O)OCc1ccccc1 (stereo not given)
  pEC50: < 3.70
  pIC50: 3.74

## C#CCN(N=O)C(=O)NCCCCC(NC(=O)OCc1ccccc1)C(=O)OCc1ccccc1 (stereo not given)
  pEC50: < 4.55
  pIC50: < 4.55

## COC1/C=C/OC2(C)Oc3c(C)c(O)c4c(O)c(c(/C=N/N5C(C)CN(Cc6ccc(NC(C)=O)cc6)CC5C)c(O)c4c3C2=O)NC(=O)C(C)=C/C=C/C(C)C(O)C(C)C(O)C(C)C(OC(C)=O)C1C (stereo not given)
  pEC50: < 3.70
  pIC50: 5.04

## CCCO/N=C\c1c2c(O)c3c(O)c(C)c4c(c3c1O)C(=O)C(C)(O/C=C\C(OC)C(C)C(OC(C)=O)C(C)C(O)C(C)C(O)C(C)/C=C\C=C(\C)C(=O)N2)O4 (stereo not given)
  pEC50: < 4.00
  pIC50: 5.28

## CCCCCCCCCCCCCCCCOC(=O)C(C(=O)OCCCCCCCCCCCCCCCC)[N+](C)(C)CCOC(C)=O
  outcome: inactive

## Cn1c(=O)ccc2cc(C(=O)c3ccccc3)ccc21
  pEC50: < 3.72
  pIC50: 4.40

## COc1c2c(c(OC)c3c1C(=O)c1ccccc1C3=O)C(=O)CCC2
  pEC50: < 5.09
  pIC50: < 5.09

## N#CC(C#N)=C1C(=O)NC(N)=C1C#N
  pEC50: < 3.70
  pIC50: < 3.70

## NC(=S)NNc1c([N+](=O)[O-])cnn(-c2ccccc2)c1=O
  pEC50: < 4.23
  pIC50: 6.49

## CCOc1ccccc1NC(=O)C(=O)CC(=O)C1=C(C)Nc2ccccc2S1
  pEC50: < 3.93
  pIC50: < 3.93

## Cn1c2c(c3ccccc31)CCN1C[C@@H]3CCCC[C@H]3C[C@@H]21
  pEC50: < 4.00
  pIC50: 5.79

## C=CCn1cc(C(=O)NC(=O)NCCCCCOC(=O)CCCCCCCCCCC(=O)OCCCCCNC(=O)NC(=O)c2cn(CC=C)c(=O)n(C)c2=O)c(=O)n(C)c1=O
  pEC50: < 5.24
  pIC50: < 5.24

## CCCCCCCCCCCCCCCCCCNC(=S)/N=C/c1c(O)cc(C)oc1=O
  pEC50: < 3.70
  pIC50: 4.49

## O=c1[nH]cnc2sc(Nc3ccccc3)nc12
  outcome: inactive

## CN(C)CCN1C(=O)c2ccccc2C1(O)c1ccc(Cl)cc1 (stereo not given)
  pEC50: < 3.70
  pIC50: 4.35

## COC(=O)c1c(C)cc(C)cc1OC
  pEC50: < 3.70
  pIC50: 3.82

## C[C@H](N)C(=O)N[C@@H]1[C@H]2C(=C(O)C[C@@H](O)[C@@H]2O)C(=O)O[C@]1(C)C(Cl)Cl
  pEC50: < 4.17
  pIC50: 6.65

## O=C1Nc2ccccc2N=CC1NC(=O)C(c1ccccc1)c1ccccc1 (stereo not given)
  pEC50: < 3.59
  pIC50: 3.65

## CC1(C)CCc2cc3c(cc2O1)OCC1c2cc4c(cc2OC31)OCO4 (stereo not given)
  outcome: inactive

## O=C(OCCc1ccccc1)c1cc2ccc(O)c(O)c2cn1
  pEC50: < 5.08
  pIC50: < 5.08

## CC1(C)CC2(CC(C)(C)c3cc(O)c(O)cc32)c2cc(O)c(O)cc21
  pEC50: < 3.56
  pIC50: 4.85

## COc1cc(NS(C)(=O)=O)ccc1Nc1c2ccccc2nc2ccccc12
  outcome: inactive

## O=c1n(-c2ccc(Cl)c(Cl)c2)c(=O)n(-c2ccc(Cl)c(Cl)c2)c(=O)n1-c1ccc(Cl)c(Cl)c1
  pEC50: < 3.70
  pIC50: 5.23

## COc1cccc(C(O)C(CN2CCCCC2)CN2CCCCC2)c1 (stereo not given)
  pEC50: < 3.70
  pIC50: < 4.00

## COc1ccc(-c2cc(=O)c3c(O)c(O)c(OC)cc3o2)cc1O
  pEC50: < 3.26
  pIC50: 3.62

## Cc1c(C(c2[nH]c3ccccc3c2C)c2[nH]c3ccccc3c2C)[nH]c2ccccc12
  pEC50: 7.20
  pIC50: 4.87
